Test results reported in US10745401B2, “Condensed lactam derivative” (Sumitomo Dainippon Pharma Co., Ltd., priority 2018, dated 2020).

How the values were obtained:
hERG channel = hERG channel (Homo sapiens (Human), UniProt Q12809); assay: Test 6-1: inhibitory activity for hERG channel (auto patch clamp, Qpatch); type: cell-based; conditions: whole cell auto patch clamp, hERG-CHO cells; read-out: hERG inhibition IC50
Method in brief: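 Whole-cell patch clamp on an automated system using CHO cells stably expressing human hERG (IKr); 15 s pulse interval. Four increasing compound concentrations applied cumulatively; mean peak tail current from last 3 stimulations per concentration used. IC50 from inhibition versus pre-compound current, fitted by Hill equation.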

human 5-HT1A receptor [1] = target: T1, human 5-HT1A receptor (Homo sapiens (Human), UniProt P08908); assay: Test 1: binding activity for human 5-HT1A receptor ([3H]8-OH-DPAT, CHO cell membrane fraction)
Method in brief: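 Membranes incubated with [3H]8-OH-DPAT and compound for 60 min at room temperature, then filtered on polyethylenimine-coated glass-fibre plates and counted by liquid scintillation. IC50 from Hill analysis; Ki = IC50/(1+S/Kd), Kd from saturation binding on the same membranes.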

human D2 receptor = human D2 receptor (Homo sapiens (Human), UniProt P14416); assay: Test 1: binding activity for human D2 receptor ([3H]Spiperone, CHO cell membrane fraction); conditions: human D2 receptor, [3H]Spiperone
Method in brief: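 CHO-cell membranes with [3H]ketanserin (5-HT2A) or [3H]spiperone (D2) were incubated with compound for 60 min at room temperature, then filtered, and bound radioactivity was counted by scintillation. Ki = IC50/(1+S/Kd), with ligand Kd from saturation binding on the same membranes.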

human 5-HT1A receptor [2] = target: T1, human 5-HT1A receptor; assay: Test 2: agonist activity for human 5-HT1A receptor ([35S]GTPγS binding); type: biochemical; conditions: for EC50: [35S]GTPγS binding, concentration at which half the activity of Emax was obtained; for Emax at 10 µM: agonist activity in the presence of 10 μM of compound, relative to 100 μmol/L 5-HT
Method in brief: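 Membranes from CHO cells expressing human 5-HT1A incubated with compound, GDP-containing buffer and [35S]GTPγS for 60 min at room temperature. Bound radioactivity collected by glass-fibre filtration and counted by liquid scintillation; agonist activity derived from a formula.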

[3] = Test 4: metabolic stability test in human hepatic microsome; type: in vitro ADME; conditions: 0.1 mg/mL microsome, 0.1 μmol/L compound, 37° C., 30 minutes
Method in brief: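 Compound at 0.1 μmol/L incubated 30 min at 37° C with human liver microsomes (0.1 mg/mL) and NADPH (3.2 mmol/L) in 25 mmol/L phosphate buffer, pH 7.4. Residual compound measured by LC-MS; stability (mL/min/mg protein) = −LN(residual ratio)/30/0.1.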

Chain of hERG channel (Q12809 whole entry): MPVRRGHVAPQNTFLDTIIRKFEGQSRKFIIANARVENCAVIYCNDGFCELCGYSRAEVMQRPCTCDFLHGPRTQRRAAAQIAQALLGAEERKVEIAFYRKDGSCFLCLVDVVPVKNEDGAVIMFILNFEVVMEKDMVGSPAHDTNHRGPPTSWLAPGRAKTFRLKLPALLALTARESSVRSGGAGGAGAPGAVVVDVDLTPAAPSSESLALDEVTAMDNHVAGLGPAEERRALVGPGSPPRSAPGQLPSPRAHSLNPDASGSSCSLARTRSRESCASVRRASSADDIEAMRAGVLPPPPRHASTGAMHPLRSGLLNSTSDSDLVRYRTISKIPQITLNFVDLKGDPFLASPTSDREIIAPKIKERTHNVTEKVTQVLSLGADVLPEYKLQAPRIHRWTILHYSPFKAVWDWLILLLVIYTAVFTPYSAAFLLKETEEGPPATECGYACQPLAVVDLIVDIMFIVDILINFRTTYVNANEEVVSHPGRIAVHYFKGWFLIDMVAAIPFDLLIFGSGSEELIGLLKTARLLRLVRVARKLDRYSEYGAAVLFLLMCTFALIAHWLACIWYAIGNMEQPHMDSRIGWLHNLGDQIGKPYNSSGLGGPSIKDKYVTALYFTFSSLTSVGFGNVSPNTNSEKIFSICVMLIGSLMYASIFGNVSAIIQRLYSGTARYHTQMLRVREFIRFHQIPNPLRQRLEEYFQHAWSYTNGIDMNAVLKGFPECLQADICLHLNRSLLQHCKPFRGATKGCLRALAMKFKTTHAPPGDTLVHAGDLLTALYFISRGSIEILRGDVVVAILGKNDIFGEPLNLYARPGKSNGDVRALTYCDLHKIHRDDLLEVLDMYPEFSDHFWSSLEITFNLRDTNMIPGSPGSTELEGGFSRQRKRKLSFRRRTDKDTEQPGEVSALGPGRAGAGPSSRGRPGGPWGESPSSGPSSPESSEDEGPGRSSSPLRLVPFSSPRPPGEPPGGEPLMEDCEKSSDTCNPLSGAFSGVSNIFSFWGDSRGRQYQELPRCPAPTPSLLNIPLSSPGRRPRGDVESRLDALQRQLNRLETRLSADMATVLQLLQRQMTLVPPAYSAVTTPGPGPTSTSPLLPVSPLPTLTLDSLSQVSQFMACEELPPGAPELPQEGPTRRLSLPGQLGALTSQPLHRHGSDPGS
Chain of human D2 receptor (P14416 whole entry): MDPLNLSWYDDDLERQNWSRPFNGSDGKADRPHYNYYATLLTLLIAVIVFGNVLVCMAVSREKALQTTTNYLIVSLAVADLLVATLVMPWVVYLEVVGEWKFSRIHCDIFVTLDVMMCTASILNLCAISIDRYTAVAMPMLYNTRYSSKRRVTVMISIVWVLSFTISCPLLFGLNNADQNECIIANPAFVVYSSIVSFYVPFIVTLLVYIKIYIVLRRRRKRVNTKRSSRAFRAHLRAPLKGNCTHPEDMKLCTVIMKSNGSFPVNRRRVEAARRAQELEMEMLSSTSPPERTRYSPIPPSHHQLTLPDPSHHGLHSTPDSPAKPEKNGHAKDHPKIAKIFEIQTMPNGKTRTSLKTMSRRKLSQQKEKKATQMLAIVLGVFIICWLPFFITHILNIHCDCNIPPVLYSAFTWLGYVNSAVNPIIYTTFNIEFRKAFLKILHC
T1 sequence (P08908 whole entry): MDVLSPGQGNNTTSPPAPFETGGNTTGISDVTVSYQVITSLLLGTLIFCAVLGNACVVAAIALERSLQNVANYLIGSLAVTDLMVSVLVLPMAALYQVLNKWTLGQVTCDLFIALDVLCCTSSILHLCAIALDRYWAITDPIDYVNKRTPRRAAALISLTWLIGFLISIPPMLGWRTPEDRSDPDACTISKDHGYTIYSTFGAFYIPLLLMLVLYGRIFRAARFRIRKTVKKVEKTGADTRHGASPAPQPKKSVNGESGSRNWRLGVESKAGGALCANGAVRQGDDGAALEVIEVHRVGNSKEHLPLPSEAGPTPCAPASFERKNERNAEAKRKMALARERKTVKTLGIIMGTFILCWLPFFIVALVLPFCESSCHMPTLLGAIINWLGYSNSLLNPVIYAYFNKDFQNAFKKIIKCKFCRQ

Row | Ki (human 5-HT1A receptor [1]) | Ki (human D2 receptor) | EC50 (human 5-HT1A receptor [2]) | Emax at 10 µM (human 5-HT1A receptor [2]) | Metabolic stability in human hepatic microsome [3] | Structure (SMILES) | IC50 (hERG channel)
1 | 75.8 nM | 2300 nM | 562 nM | 30% | 0.598 mL/min/mg protein | O=C1c2cnccc2C2(CC2)CN1CCN1CCN(c2noc3ccccc23)CC1 [Example 136] | 6000 nM
2 | 0.46 nM | 343 nM | 0.77 nM | 66% | 0.459 mL/min/mg protein | Cn1nc2c(c1C(F)(F)F)C(=O)N(CCN1CCN(c3nsc4ccccc34)CC1)CC2 [Example 78] | 5500 nM
3 | 0.1 nM | 222 nM | 1.01 nM | 62% | 0.505 mL/min/mg protein | O=C1c2cnc(Br)cc2CCN1CCN1CCN(c2nsc3ccccc23)CC1 [Example 62] | 1500 nM
4 | 200 nM | 219 nM | 7670 nM | 11% | <0.05 mL/min/mg protein | O=C1c2c(Br)n[nH]c2CCN1CCN1CCC(c2noc3ccccc23)CC1 [Example 192, 5-{2-[4-(1,2-Benzoisoxazol-3-yl)piperidin-1-yl]ethyl}-3-bromo-1,5,6,7-tetrahydro-4H-pyrazolo[4,3-c]pyridin-4-one] | 700 nM
5 | 6 nM | 194 nM | 14 nM | 74% | 0.101 mL/min/mg protein | Cc1nn(C)c2c1C(=O)N(CCN1CCN(c3nsc4ccccc34)CC1)CC2 [Example 105, 5-{2-[4-(1,2-Benzoisothiazol-3-yl)piperazin-1-yl]ethyl}-1,3-dimethyl-1,5,6,7-tetrahydro-4H-pyrazolo[4,3-c]pyridin-4-one] | 7900 nM
6 | 1.58 nM | 169 nM | 9.44 nM | 64% | 0.459 mL/min/mg protein | Cn1c(F)cc2c1CCN(CCN1CCN(c3nsc4ccccc34)CC1)C2=O [Example 112, 5-{2-[4-(1,2-Benzoisothiazol-3-yl)piperazin-1-yl]ethyl}-2-fluoro-1-methyl-1,5,6,7-tetrahydro-4H-pyrrolo[3,2-c]pyridin-4-one] | 2200 nM
7 | 817 nM | 286 nM | 4260 nM | 14% | <0.05 mL/min/mg protein | O=C1c2nc[nH]c2CCN1CCN1CCC(c2noc3ccccc23)CC1 [Example 191, 5-{2-[4-(1,2-Benzoisoxazol-3-yl)piperidin-1-yl]ethyl}-6,7-dihydro[1,3]imidazolo[4,5-c]pyridin-4(5H)-one] | 2600 nM
8 | 16 nM | 750 nM | 74.5 nM | 59% | 0.148 mL/min/mg protein | Cc1noc2ccn(CCN3CCC(c4noc5ccccc45)CC3)c(=O)c12 [Example 132] | 700 nM
9 | 7.03 nM | 311 nM | 96 nM | 32% | 0.02 mL/min/mg protein | O=c1c2ncccc2ccn1CCN1CCC(c2noc3cc(F)ccc23)CC1 [Example 12] | 300 nM
10 | 0.17 nM | 139 nM | 6.22 nM | 57% | <0.05 mL/min/mg protein | Cc1cc2c(n1C)CCCN(CCN1CCC(c3noc4ccccc34)CC1)C2=O [Example 166] | 1000 nM
11 | 2.4 nM | 766 nM | 11 nM | 67% | 0.118 mL/min/mg protein | CCn1cc2c(n1)CCN(CCN1CCN(c3nsc4ccccc34)CC1)C2=O [Example 163] | 1400 nM
12 | 13.6 nM | 697 nM | 4.3 nM | 50% | 0.161 mL/min/mg protein | Cn1cnc2c1C(=O)N(CCN1CCN(c3nsc4ccccc34)CC1)CCC2 [Example 55] | > 10000 nM
13 | 5.24 nM | 236 nM | 79.4 nM | 53% | 0.368 mL/min/mg protein | O=C1c2cnc(C3CC3)nc2CCN1CCN1CCN(c2nsc3ccccc23)CC1 [Example 94] | 2300 nM
14 | 10.9 nM | 131 nM | 79.3 nM | 45% | <0.01 mL/min/mg protein | Cn1cc2c(n1)CCCN(CCN1CCC(c3noc4ccccc34)CC1)C2=O [Example 41] | 500 nM
15 | 0.25 nM | 852 nM | 1.1 nM | 74% | 0.194 mL/min/mg protein | N#Cc1cc2c(cn1)C(=O)N(CCN1CCN(c3nsc4ccccc34)CC1)CC2 [Example 102, 7-{2-[4-(1,2-Benzoisothiazol-3-yl)piperazin-1-yl]ethyl}-8-oxo-5,6,7,8-tetrahydro-2,7-naphthyridine-3-carbonitrile] | 1000 nM
16 | 0.19 nM | 239 nM | 6.21 nM | 63% | 0.409 mL/min/mg protein | CC1CN(CCN2CCN(c3nsc4ccccc34)CC2)C(=O)c2ccn(C)c21 (centres unmarked) [Example 79] | 4500 nM
17 | 7.85 nM | 703 nM | 82.6 nM | 53% | <0.05 mL/min/mg protein | O=C1c2nc(F)ccc2CCN1CCN1CCC(c2noc3ccccc23)CC1 [Example 188, 7-{2-[4-(1,2-Benzoisoxazol-3-yl)piperidin-1-yl]ethyl}-2-fluoro-6,7-dihydro-1,7-naphthyridin-8(5H)-one] | 1900 nM
18 | 5.63 nM | 237 nM | – | 36% | 0.095 mL/min/mg protein | COc1ncc2c(n1)CCN(CCN1CCN(c3nsc4ccccc34)CC1)C2=O [Example 177] | 3700 nM
19 | 11.6 nM | 312 nM | 755 nM | 43% | 0.013 mL/min/mg protein | O=C1c2[nH]ncc2CCN1CCN1CCC(c2noc3ccccc23)CC1 [Example 98, 6-{2-[4-(1,2-Benzoisoxazol-3-yl)piperidin-1-yl]ethyl}-1,4,5,6-tetrahydro-7H-pyrazolo[3,4-c]pyridin-7-one] | 1100 nM
20 | 5.17 nM | 743 nM | 31 nM | 46% | <0.05 mL/min/mg protein | Cn1cc2c(n1)C(=O)N(CCN1CCC(c3noc4ccccc34)CC1)CC2 [Example 156] | 2100 nM
21 | 8.62 nM | 2120 nM | 18 nM | 59% | 0.323 mL/min/mg protein | Cc1cc2c(cn1)C(=O)N(CCN1CCN(c3noc4ccccc34)CC1)CC21CC1 [Example 21] | 8000 nM
22 | 1.63 nM | 804 nM | 38.4 nM | 74% | 0.244 mL/min/mg protein | COc1c2c(nn1C)CCN(CCN1CCN(c3nsc4ccccc34)CC1)C2=O [Example 106, 5-{2-[4-(1,2-Benzoisothiazol-3-yl)piperazin-1-yl]ethyl}-3-methoxy-2-methyl-2,5,6,7-tetrahydro-4H-pyrazolo[4,3-c]pyridin-4-one] | 4800 nM
23 | 3.44 nM | 2250 nM | 53.8 nM | 39% | 0.050 mL/min/mg protein | Cc1ccc2onc(C3CCN(CCN4CCc5cccnc5C4=O)CC3)c2c1 [Example 89] | 1300 nM
24 | 0.15 nM | 136 nM | 2.87 nM | 42% | <0.01 mL/min/mg protein | COc1cc2c(cn1)C(=O)N(CCN1CCC(c3noc4ccccc34)CC1)CC2 [Example 14] | 800 nM
25 | 6.9 nM | 780 nM | 42.1 nM | 51% | 0.092 mL/min/mg protein | O=C1c2cncnc2CCN1CCN1CCN(c2nsc3ccccc23)CC1 [Example 58] | 6000 nM
26 | 0.24 nM | 605 nM | 1.3 nM | 78% | 0.119 mL/min/mg protein | CC1CN(CCN2CCN(c3nsc4ccccc34)CC2)C(=O)c2cnn(C)c21 (centres unmarked) [Example 77] | 4600 nM
